Experimental data as given in US20190161807A1, “RAD51C as a Human Cancer Susceptibility Gene” (Heinrich-Heine-Universität Düsseldorf, priority 2010, published 2019).

Test system: RAD51C bi-allelic mutated cells
Experiment: Toxicity of PARP inhibitor / topoisomerase I inhibitor exposure in cells with reduced or absent RAD51C function (FIG. 5, FIG. 6)
Type: cell-based
Details: RAD51C bi-allelic mutated cells vs normal cells, mono-allelic RAD51C mutated cells and RAD51C-complemented cells

| SMILES | sensitivity (toxicity) of cells towards exposure to the topoisomerase I inhibitor (FIG. 6, means±SD, n=4) | sensitivity (toxicity) of cells towards exposure to the PARP inhibitor (FIG. 5, means±SD, n=3) |
| --- | --- | --- |
| CC[C@@]1(O)C(=O)OCc2c1cc1n(c2=O)Cc2cc3ccccc3nc2-1 [camptothecin] | increased toxicities |  |
| CN(C)CC(=O)Nc1ccc2[nH]c(=O)c3ccccc3c2c1 [PJ34] |  | increased toxicities |
